Test system: MOLM-13
Assay: Cytotoxicity against human MOLM-13 cells assessed as reduction in cell viability incubated for 72 hrs by Celltiter-glo luminescent assay
Type: functional, cell-based
Conditions: MOLM-13, 72 h

Row | Structure (SMILES) | IC50 [pM]
1 | [2H]C([2H])([2H])n1cc(-c2cc3c(C(C)C)cn(-c4ccccc4C)c(=O)c3cc2F)nc1C(C)(C)O | 40
2 | Cc1ccccc1-n1cc(C(C)C)c2cc(-c3ccc(C)c(N)n3)c(F)cc2c1=O | 20
3 | Cc1ccccc1-n1nc(C(C)C)c2cc(-c3cn(C)c(C(C)(C)O)n3)c(F)cc2c1=O | 90
4 | Cc1ccccc1-n1cc(C(C)C)c2cc(-c3nc(C(C)(C)O)n(C)n3)c(F)cc2c1=O | 80
5 | Cc1ccccc1-n1cc(C(C)C)c2cc(-c3cn(C)c([C@@H](C)O)n3)c(F)cc2c1=O | 100
6 | Cc1ccccc1-n1cc(C(C)C)c2cc(-c3cn(C)c(C(C)(C)O)n3)c(F)cc2c1=O | 80

Target: Dihydroorotate dehydrogenase (quinone), mitochondrial (Homo sapiens, UniProt Q02127)
Sequence (Q02127 whole entry): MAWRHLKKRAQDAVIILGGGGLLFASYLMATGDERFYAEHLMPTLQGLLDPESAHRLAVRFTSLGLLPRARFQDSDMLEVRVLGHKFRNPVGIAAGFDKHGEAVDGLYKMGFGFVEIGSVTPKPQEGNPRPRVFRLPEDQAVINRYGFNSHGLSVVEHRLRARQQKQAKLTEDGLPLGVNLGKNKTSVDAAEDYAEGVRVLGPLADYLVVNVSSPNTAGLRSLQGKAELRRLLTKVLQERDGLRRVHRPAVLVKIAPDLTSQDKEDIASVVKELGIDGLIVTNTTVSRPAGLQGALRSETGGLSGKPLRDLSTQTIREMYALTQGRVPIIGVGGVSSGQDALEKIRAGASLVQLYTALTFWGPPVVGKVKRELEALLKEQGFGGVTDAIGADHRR
Assay: Inhibition of human DHODH using dihydroorotate and CoQ6 as substrate by DCIP dye based spectrophotometry analysis
Conditions: not given

Row | Structure (SMILES) | IC50 [pM]
7 | [2H]C([2H])([2H])n1cc(-c2cc3c(C(C)C)cn(-c4ccccc4C)c(=O)c3cc2F)nc1C(C)(C)O | 540

— ChEMBL document CHEMBL5360670, “Novel Dihydroorotate Dehydrogenase Inhibitors for Treating Acute Myelogenous Leukemia” (ACS Med Chem Lett, 2023)
